# Measured values taken from patent US8044047B2, “5-substituted benzoxazines” (Hoffman-La Roche Inc., priority 2008, dated 2011).
# Target: T1, recombinant human 5-HT5A receptor (Homo sapiens, UniProt P47898)
# T1 construct: expressed in transfected cells; host or cells: HEK-EBNA (Human Embryonic Kidney-EBNA) cells, transient cDNA expression; membranes
# Test: [3H]LSD radioligand binding assay, membranes of HEK-EBNA cells transiently expressing 5-HT5A receptors
# Conditions: [3H]LSD approx. 1 nM, SPA beads, 120 min at room temperature; Ki from IC50 by the Cheng-Prussoff equation
# Protocol: A [^3H]LSD radioligand binding assay was used to determine the affinity of the compounds for the recombinant human 5-HT5A receptor, in membranes from transiently (cDNA) expressed 5-HT5A receptors in Human Embryonic Kidney-EBNA (HEK-EBNA) cells. Assay buffer consisted of Tris (50 mM) buffer containing 1 mM EGTA, 10 mM MgCl2 (pH 7.4) and 10 μM pargyline. The binding assay was carried out in 96-well-plates in the presence of [^3H]LSD (approximately 1 nM), approximately 2 μg/well of membrane protein, and 0.5 mg of Ysi-poly-1-lysine SPA beads in a final volume of 200 μl of buffer. Non-specific binding was defined using methiothepin 2 μM. Compounds were tested at 10 concentrations. All assays were conducted in duplicate and repeated at least two times. Assay plates were incubated for 120 min at room temperature before centrifugation. Bound ligand was determined using a Packard Topcount scintillation counter. IC50 values were calculated using a non-linear curve fitting program and Ki values calculated using the Cheng-Prussoff equation.
# T1 sequence (P47898 whole entry): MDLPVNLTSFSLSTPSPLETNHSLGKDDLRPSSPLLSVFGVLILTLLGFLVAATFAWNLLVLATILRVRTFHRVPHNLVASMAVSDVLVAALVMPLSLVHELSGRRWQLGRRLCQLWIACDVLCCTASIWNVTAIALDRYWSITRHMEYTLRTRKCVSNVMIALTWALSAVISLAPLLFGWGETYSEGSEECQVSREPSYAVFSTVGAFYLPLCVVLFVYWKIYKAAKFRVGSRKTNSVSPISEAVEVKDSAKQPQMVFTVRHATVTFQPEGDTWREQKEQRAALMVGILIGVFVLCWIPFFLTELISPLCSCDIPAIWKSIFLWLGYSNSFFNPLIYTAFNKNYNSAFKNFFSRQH
row,Compound,Ki [nM]
1,"Clc1cccc2c1COC(N[C@@H]1CCc3ccccc31)=N2 [Example 1, (5-Chloro-4H-benzo[d][1,3]oxazin-2-yl)-(R)-indan-1-yl-amine]",57
2,"O=[N+]([O-])c1cccc2c1COC(N[C@@H]1CCc3ccccc31)=N2 [Example 2, (R)-Indan-1-yl-(5-nitro-4H-benzo[d][1,3]oxazin-2-yl)-amine]",169
3,"Nc1cccc2c1COC(N[C@@H]1CCc3ccccc31)=N2 [Example 3, (R)—N^2-Indan-1-yl-4H-benzo[d][1,3]oxazine-2,5-diamine]",3
4,"COc1cccc2c1C(NC1=Nc3cccc(N)c3CO1)CO2 (stereo not drawn) [Example 4, N^2-(4-Methoxy-2,3-dihydro-benzofuran-3-yl)-4H-benzo[d][1,3]oxazine-2,5-diamine]",27
5,"O=C(Cc1ccc(Cl)cc1)Nc1cccc2c1COC(N[C@@H]1CCc3ccccc31)=N2 [Example 5, 2-(4-Chloro-phenyl)-N-[2-((R)-indan-1-ylamino)-4H-benzo[d][1,3]oxazin-5-yl]-acetamide]",131
6,"O=S(=O)(Nc1cccc2c1COC(N[C@@H]1CCc3ccccc31)=N2)c1cc(F)cc(F)c1 [Example 6, 3,5-Difluoro-N-[2-((R)-indan-1-ylamino)-4H-benzo[d][1,3]oxazin-5-yl]-benzenesulfonamide]",2
7,"COc1cccc2c1C(NC1=Nc3cccc(NS(=O)(=O)c4cc(F)cc(F)c4)c3CO1)CO2 (stereo not drawn) [Example 7, 3,5-Difluoro-N-[2-(4-methoxy-2,3-dihydro-benzofuran-3-ylamino)-4H-benzo[d][1,3]oxazin-5-yl]-benzenesulfonamide]",10
8,"O=S(=O)(Nc1cccc2c1COC(N[C@@H]1CCc3ccccc31)=N2)C1CC1 [Example 8, Cyclopropanesulfonic acid [2-((R)-indan-1-ylamino)-4H-benzo[d][1,3]oxazin-5-yl]-amide]",2
9,"Brc1cccc2c1COC(N[C@@H]1CCc3ccccc31)=N2 [Example 9, (5-Bromo-4H-benzo[d][1,3]oxazin-2-yl)-(R)-indan-1-yl-amine]",106
10,"CS(=O)(=O)Nc1cccc2c1COC(N[C@@H]1CCc3ccccc31)=N2 [Example 10, N-[2-((R)-Indan-1-ylamino)-4H-benzo[d][1,3]oxazin-5-yl]-methanesulfonamide]",5
11,"N#Cc1cccc2c1COC(N[C@@H]1CCc3ccccc31)=N2 [Example 11, 2-((R)-Indan-1-ylamino)-4H-benzo[d][1,3]oxazine-5-carbonitrile]",118
12,"c1ccc2c(c1)CC[C@H]2NC1=Nc2cccc(C3CC3)c2CO1 [Example 12, (5-Cyclopropyl-4H-benzo[d][1,3]oxazin-2-yl)-(R)-indan-1-yl-amine]",13
13,"Fc1ccc(-c2cccc3c2COC(N[C@@H]2CCc4ccccc42)=N3)cc1 [Example 13, [5-(4-Fluoro-phenyl)-4H-benzo[d][1,3]oxazin-2-yl]-(R)-indan-1-yl-amine]",78
14,"Fc1ccc(Nc2cccc3c2COC(N[C@@H]2CCc4ccccc42)=N3)cc1 [Example 14, N^5-(4-Fluoro-phenyl)-N^2—(R)-indan-1-yl-4H-benzo[d][1,3]oxazine-2,5-diamine]",3
15,"Clc1ccc(Nc2cccc3c2COC(N[C@@H]2CCc4ccccc42)=N3)cc1 [Example 15, N^5-(4-Chloro-phenyl)-N^2—(R)-indan-1-yl-4H-benzo[d][1,3]oxazine-2,5-diamine]",2
